Experimental data from paper PMC9963656, “Synthesis, Molecular Docking, and Bioactivity Study of Novel Hybrid Benzimidazole Urea Derivatives: A Promising α-Amylase and α-Glucosidase Inhibitor Candidate with Antioxidant Activity” (Pharmaceutics, 2023).

Tests used:
[1] = Total antioxidant capacity (TAC), molybdate reduction; settings: for TAC: total antioxidant capacity: compound 1 mM in DMSO, 695 nm
Description: An amount of 2 mL of freshly prepared 0.6 M solution of sulfuric acid, a solution of ammonium molybdate (4 mM), and a buffer solution of sodium phosphate (28 mM) were placed in small glass test tubes and thoroughly mixed with the compound solution (200 μL in DMSO with a concentration of 1 mM). An amount of 2 mL of molybdate reagent was mixed with 200 μL of distilled water to make a blank test. The cylinders were warmed to 85 °C for 1.5 h before cooling to ambient temperature. At 695 nm, the produced blue color was assessed with a UV spectrophotometer, with the blank reading having to serve as the auto-zero point. The TAC results were calculated using the Trolox standard calibration curve.

[2] = DPPH scavenging activity (DPPH-SA); settings: for DPPH-SA: 2,2-diphenyl-1-picrylhydrazyl scavenging activity: compound 1 mM, 517 nm
Description: The ability of the compounds to scavenge free radicals was tested against DPPH-stable free radicals. The degree of reduction in the DPPH violet color is directly proportional to the scavenging efficacy of the compounds. According to the method of Aroua et al., 1 mL of the DMSO solutions of the tested compounds (1 mM final concentration) was thoroughly mixed in test tubes with the DPPH solution prepared at the concentration of 300 µM in methanol. After 30 min at room temperature, the reduction in DPPH-violet color was measured at 517 nm. The DPPH-SA of the compounds was calculated using the DPPH-Trolox calibration curve.

α-amylase = α-amylase (Aspergillus oryzae, UniProt P0C1B3); experiment: biochemical; settings: triplicate values; read-out: α-Amylase Inhibition IC50 ± SEM
Description: The α-amylase inhibition activity was measured using the previously reported methodologies. An amount of 500 μL of test sample ([…]) and 500 μL of […] α-amylase (source: Aspergillus oryzae) solution (0.5 mg/mL) in […] phosphate buffer (pH 6.9) were incubated for 10 min at 25 °C. Following pre-incubation, 500 μL of 1% starch solution in 0.02 M sodium phosphate buffer (pH 6.9) was added and incubated for 10 min at 25 °C. An amount of 1 mL of dinitro salicylic acid color reagent was used to stop the reaction. The tubes were then placed in boiling water for 5 min before being cooled to room temperature. After diluting the solutions with 10 mL of distilled water, the absorbance at 540 nm was measured. […] The percentage of enzyme inhibition was calculated using the following equation:(1) % of Enzyme Inhibition=(Absorbance of control – Absorbance of compound)×100 /Absorbance of control

[3] = Iron chelating activity assay (MCA); settings: for MCA: metal chelating activity: compound 1 mM, 562 nm
Description: Using the method of Zengin et al. with modification, the ability of compounds to chelate iron compared to the EDTA was estimated. To inchoate the color, a compound solution in DMSO ([…] a final concentration of 1 mM) plus ferrous chloride (25 μL, 2 mM, FeCl2) was added to 100 μL of ferrozine. At 562 nm, the absorbance of the mixture was measured in comparison to a blank (prepared similarly to a test without ferrozine). The chelating activity of the extract was calculated in equivalents to the EDTA standard calibration curve.

α-glucosidase = target: T1, α-glucosidase (Saccharomyces cerevisiae, UniProt P53341); experiment: biochemical; settings: triplicate values; read-out: α-Glucosidase Inhibition IC50 ± SEM
T1 construct: purchased Sigma-Aldrich
Description: The inhibition of α-glucosidase activity was measured using a modified version of a previously published method. In 100 mL of phosphate buffer (pH 6.8) containing 200 mg of bovine serum albumin, one milligram of α-glucosidase (Saccharomyces cerevisiae, Sigma-Aldrich, St. Louis, MO, USA) was dissolved (Merck, Darmstadt, Germany). The reaction mixture was made up of 10 μL of sample at various concentrations ([…]), 490 μL of phosphate buffer pH 6.8, and 250 μL of 5 mM p-nitrophenyl-D-glucopyranoside (Sigma-Aldrich, Buchs, Switzerland). After a 5 min preincubation at 37 °C, 250 μL of α-glucosidase (0.15 unit/mL) was added and incubated at 37 °C for 15 min. The reaction was stopped by adding 2000 μL Na2CO3 200 mM. α-glucosidase activity was measured using a spectrophotometer UV-Vis (Shimadzu 265, Kyoto, Japan) at 400 nm by measuring the amount of p-nitrophenol released from p-NPG. […] Equation (1) was used to calculate the percentage of inhibition.

[4] = Ferric reducing antioxidant power (FRAP) assay; settings: for FRAP: ferric reducing antioxidant power: compound 1 mM, 593 nm
Description: The FRAP reagent is a 1:1:10 mixture of TPTZ (2,4,6-Tris(2-pyridyl)-S-triazine, 10 mM prepared in 40 mM HCl), FeCl3.6H2O (20 mM), and acetate buffer (300 mM, pH 3.6). Accurately, 0.1 mL of the samples (final concentration 1 mM in DMSO) was thoroughly mixed with 2 mL of the FRAP reagent and incubated at room temperature for 30 min. At 593 nm, the absorbance was measured. The compounds FRAP activity was calculated using the FRAP-trolox calibration curve in trolox equivalent.

T1 sequence (P53341 whole entry): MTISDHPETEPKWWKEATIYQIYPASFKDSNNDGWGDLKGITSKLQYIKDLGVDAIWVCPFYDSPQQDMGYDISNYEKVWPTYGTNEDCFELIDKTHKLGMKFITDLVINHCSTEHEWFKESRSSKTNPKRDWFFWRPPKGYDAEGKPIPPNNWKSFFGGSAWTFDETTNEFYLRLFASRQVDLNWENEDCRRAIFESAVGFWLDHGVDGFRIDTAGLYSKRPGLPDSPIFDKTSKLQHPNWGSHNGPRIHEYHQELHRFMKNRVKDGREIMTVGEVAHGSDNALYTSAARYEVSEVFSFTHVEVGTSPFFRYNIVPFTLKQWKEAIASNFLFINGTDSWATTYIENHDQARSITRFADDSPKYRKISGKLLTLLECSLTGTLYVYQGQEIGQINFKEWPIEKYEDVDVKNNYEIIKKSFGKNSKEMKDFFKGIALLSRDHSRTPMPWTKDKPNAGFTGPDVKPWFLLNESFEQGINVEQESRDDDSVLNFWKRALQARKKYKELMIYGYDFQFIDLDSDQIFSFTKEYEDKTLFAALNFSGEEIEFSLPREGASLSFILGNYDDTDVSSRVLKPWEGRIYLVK

Structure (SMILES)	total antioxidant capacity (TAC), molybdenum (VI) reducing activity [1]	TAC: total antioxidant capacity [1]	DPPH-SA: 2,2-diphenyl-1-picrylhydrazyl scavenging activity [2]	IC50 (α-amylase)	MCA: metal chelating activity [3]	melting point	IC50 (α-glucosidase)	FRAP: ferric reducing antioxidant power [4]	DPPH-SA [2]	ferric reducing antioxidant power (FRAP) [4]	metal chelating activity (MCA) [3]
O=C(Nc1ccccc1-c1nc2ccccc2[nH]1)Nc1cccc2ccccc12 [3b, 1-(2-(1H-benzo[d]imidazol-2-yl)phenyl)-3-(naphthalen-1-yl)urea]	5.16 ± 0.69 mM trolox equivalents	5.16 ± 0.69 trolox equivalent per 1 mM of the compounds	0.96 ± 0.06 trolox equivalent per 1 mM of the compounds	41.7 ± 0.06 µM	1.55 ± 0.07 EDTA equivalent per 1 mM of the compounds	203 to 205 °C	45.97 ± 0.19 µM	9.25 ± 0.20 trolox equivalent per 1 mM of the compounds	–	–	–
O=C(Nc1ccc(NC(=O)Nc2ccccc2-c2nc3ccccc3[nH]2)cc1)Nc1ccccc1-c1nc2ccccc2[nH]1 [3g, 1,1’-(1,4-phenylene)bis(3-(2-(1H-benzo[d]imidazol-2-yl)phenyl)urea)]	10.06 ± 1.51 mM trolox equivalents	10.06 ± 1.51 trolox equivalent per 1 mM of the compounds	3.86 ± 0.04 trolox equivalent per 1 mM of the compounds	22.33 ± 0.12 µM	1.36 ± 0.09 EDTA equivalent per 1 mM of the compounds	190 to 192 °C	23.01 ± 0.12 µM	16.12 ± 0.29 trolox equivalent per 1 mM of the compounds	3.86 ± 0.04 mM trolox equivalents	16.12 ± 0.29 mM trolox equivalents	–
O=C(NCC1CCC(CNC(=O)Nc2ccccc2-c2nc3ccccc3[nH]2)CC1)Nc1ccccc1-c1nc2ccccc2[nH]1 (centres unmarked) [3h, 1,1′-(cyclohexane-1,4-diylbis(methylene))bis(3-(2-(1H-benzo[d]imidazol-2-yl)phenyl)urea)]	–	2.25 ± 0.65 trolox equivalent per 1 mM of the compounds	1.09 ± 0.03 trolox equivalent per 1 mM of the compounds	43.04 ± 0.02 µM	2.95 ± 0.21 EDTA equivalent per 1 mM of the compounds	190 to 192 °C	44.99 ± 0.09 µM	6.79 ± 0.50 trolox equivalent per 1 mM of the compounds	–	–	2.95 ± 0.21 mM EDTA equivalents
CCCCNC(=O)Nc1ccccc1-c1nc2ccccc2[nH]1 [3f, 1-(2-(1H-benzo[d]imidazol-2-yl)phenyl)-3-butylurea]	8.50 ± 0.87 mM trolox equivalents	8.50 ± 0.87 trolox equivalent per 1 mM of the compounds	1.55 ± 0.03 trolox equivalent per 1 mM of the compounds	28.33 ± 0.02 µM	1.40 ± 0.07 EDTA equivalent per 1 mM of the compounds	196 to 198 °C	29.01 ± 0.12 µM	5.99 ± 0.02 trolox equivalent per 1 mM of the compounds	–	–	–
O=C(Nc1ccccc1)Nc1ccccc1-c1nc2ccccc2[nH]1 [3a, 1-(2-(1H-benzo[d]imidazol-2-yl)phenyl)-3-phenylurea]	–	1.33 ± 0.46 trolox equivalent per 1 mM of the compounds	1.17 ± 0.07 trolox equivalent per 1 mM of the compounds	40.7 ± 0.06 µM	1.62 ± 0.10 EDTA equivalent per 1 mM of the compounds	129 to 131 °C	42.97 ± 0.19 µM	6.53 ± 0.03 trolox equivalent per 1 mM of the compounds	–	–	–
O=C(Nc1ccccc1-c1nc2ccccc2[nH]1)NC1CCCCC1 [3d, 1-(2-(1H-benzo[d]imidazol-2-yl)phenyl)-3-cyclohexylurea]	–	2.47 ± 0.42 trolox equivalent per 1 mM of the compounds	2.89 ± 1.07 trolox equivalent per 1 mM of the compounds	25.65 ± 0.03 µM	1.46 ± 0.10 EDTA equivalent per 1 mM of the compounds	330 to 332 °C	27.47 ± 0.13 µM	5.67 ± 0.69 trolox equivalent per 1 mM of the compounds	2.89 ± 1.07 mM trolox equivalents	–	–
COc1ccc(NC(=O)Nc2ccccc2-c2nc3ccccc3[nH]2)cc1 [3c, 1-(2-(1H-benzo[d]imidazol-2-yl)phenyl)-3-(4-methoxyphenyl)urea]	4.43 ± 0.53 mM trolox equivalents	4.43 ± 0.53 trolox equivalent per 1 mM of the compounds	1.61 ± 0.02 trolox equivalent per 1 mM of the compounds	18.7 ± 0.23 µM	1.55 ± 0.22 EDTA equivalent per 1 mM of the compounds	197 to 199 °C	17.47 ± 0.03 µM	8.65 ± 0.29 trolox equivalent per 1 mM of the compounds	–	8.65 ± 0.29 mM trolox equivalents	–
CC(C)NC(=O)Nc1ccccc1-c1nc2ccccc2[nH]1 [3e, 1-(2-(1H-benzo[d]imidazol-2-yl)phenyl)-3-isopropylurea]	–	2.52 ± 0.80 trolox equivalent per 1 mM of the compounds	1.70 ± 0.01 trolox equivalent per 1 mM of the compounds	20.7 ± 0.06 µM	1.47 ± 0.09 EDTA equivalent per 1 mM of the compounds	196 to 198 °C	21.97 ± 0.19 µM	2.75 ± 0.15 trolox equivalent per 1 mM of the compounds	–	–	–
